The structures appear in SMILES notation.

IC50 data for 17 molecules are collected here from US20250100994A1, “CDK12/13 COVALENT INHIBITORS OR PHARMACEUTICAL COMPOSITION THEREOF, AND USES THEREOF” (The Regents of the University of Michigan, priority 2023, published 2025).

For the assay, the system named is VCaP cell. The experiment in a line: VCaP cell proliferation, CellTiter-Glo Luminescent Cell Viability Assay. Format: cell-based. As to conditions: Homo sapiens, VCaP cells. Here is the method: The VCaP cell proliferation activity was determined by CellTiter-Glo Luminescent Cell Viability Assay (Promega, Madison, WI). The cells were inoculated on a 96-well plate in their respective culture mediums, and incubated in an incubator with 5% CO2 at 37° C. After incubation overnight, serial dilutions of the compound were prepared, and added into the 96-well plate. A CellTiter-Glo reagent (volume equal to the volume of the cell culture medium present in each well) was added (e.g., 100 μL of the reagent was added into 100 μL of the cell culture medium in the 96-well plate). The contents were mixed on an orbital shaker for 2 min to induce the cell lysis. The cells in the 96-well plate were incubated at room temperature for 10 min, to stabilize the luminescent signal. Luminescence was recorded: the luminescent signal for each well was acquired using an Infinite M1000 Pro plate reader (Tecan, Zurich, Switzerland), and the data was analyzed using GraphPad Prism software (GraphPad Software Inc, La Jolla, CA).
`CN(C)C/C=C/C(=O)Nc1cc(N(C(=O)NCc2ccccc2)[C@H]2CC[C@H](Nc3ccc(C#N)cn3)CC2)ccc1-c1ccc(=O)n(C)c1` [YJZ5078] had an IC50 of 50 to 500 nM.
For the molecule `C=CC(=O)Nc1cc(N(C(C)=O)[C@H]2CC[C@H](Nc3ccc(C#N)cn3)CC2)ccc1N1CCC(N(C)C)CC1` [YJZ6115, N-(5-(N-((1r,4r)-4-((5-cyanopyridin-2-yl)amino)cyclohexyl)acetamido)-2-(4-(dimethylamino)piperidin-1-yl)phenyl)acrylamide], the IC50 was greater than 500 nM.
Turning to `C=CC(=O)Nc1cc(N([C@H]2CC[C@H](Nc3ccc(C#N)cn3)CC2)S(C)(=O)=O)ccc1N1CCC(N(C)C)CC1` [YJZ6131, N-(5-(N-((1r,4r)-4-((5-cyanopyridin-2-yl)amino)cyclohexyl)methylsulfonamido)-2-(4-(dimethylamino)piperidin-1-yl)phenyl)acrylamide], the IC50 is greater than 500 nM.
Take `C=CC(=O)Nc1cc(N([C@H]2CC[C@H](Nc3ccc(C#N)cn3)CC2)S(=O)(=O)Cc2ccccc2)ccc1N1CCC(N(C)C)CC1` [YJZ6136, N-(5-((N-((1r,4r)-4-((5-cyanopyridin-2-yl)amino)cyclohexyl)-1-phenylmethyl)sulfonamido)-2-(4-(dimethylamino)piperidin-1-yl)phenyl)acrylamide]: the IC50 fell in the range of 50 to 500 nM.
In the case of `C=CC(=O)Nc1cc(N(C(=O)NCc2ccccc2)[C@H]2CC[C@H](Nc3ncc(C#N)cn3)CC2)ccc1N1CCN(C)[C@@H](C)C1` [YJZ7007] it was 15 to 50 nM; in that of `C=CC(=O)Nc1cc(Br)cc(N(C(=O)NCc2ccccc2)[C@H]2CC[C@H](Nc3ccc(C#N)cn3)CC2)c1` [YJZ8053, N-(3-(3-benzyl-1-((1r,4r)-4-((5-cyanopyridin-2-yl)amino)cyclohexyl)ureido)-5-bromophenyl)acrylamide], 50 to 500 nM.
`C=CC(=O)Nc1cc(OC)cc(N(C(=O)NCc2ccccc2)[C@H]2CC[C@H](Nc3ccc(C#N)cn3)CC2)c1` [YJZ8058, N-(3-(3-benzyl-1-((1r,4r)-4-((5-cyanopyridin-2-yl)amino)cyclohexyl)ureido)-5-methoxyphenyl)acrylamide] yielded an IC50 of 50 to 500 nM.
For the molecule `C=CC(=O)Nc1cc(N2CCN(C)[C@@H](C)C2)cc(N(C(=O)NCc2ccccc2)[C@H]2CC[C@H](Nc3ccc(C#N)cn3)CC2)c1` [YJZ8062], the IC50 fell in the range of 15 to 50 nM.
Molecule `C=CC(=O)Nc1cc(N(C(=O)C(=O)NCc2cccc(F)c2)[C@H]2CC[C@H](Nc3ccc(C#N)cn3)CC2)ccc1N1CCN(C)[C@@H](C)C1` [YJZ8087, N1-(3-acrylamido-4-((S)-3,4-dimethylpiperazin-1-yl)phenyl)-N1-((1r,4S)-4-((5-cyanopyridin-2-yl)amino)cyclohexyl)-N2-(3-fluorobenzyl)oxalamide] registered an IC50 of 15 to 50 nM.
Regarding `C=CC(=O)Nc1cc(N(C(=O)C(=O)NCc2ccc(F)cc2)[C@H]2CC[C@H](Nc3ccc(C#N)cn3)CC2)ccc1N1CCN(C)[C@@H](C)C1` [YJZ8093, N1-(3-acrylamido-4-((S)-3,4-dimethylpiperazin-1-yl)phenyl)-N1-((1r,4S)-4-((5-cyanopyridin-2-yl)amino)cyclohexyl)-N2-(4-fluorobenzyl)oxalamide], the half-inhibitory concentration (IC50) was 15 to 50 nM.
In turn, `C=CC(=O)Nc1cc(N(C(=O)C(=O)NC2CC2)[C@H]2CC[C@H](Nc3ccc(C#N)cn3)CC2)ccc1N1CCN(C)[C@@H](C)C1` [YJZ8095, N1-(3-acrylamido-4-((S)-3,4-dimethylpiperazin-1-yl)phenyl)-N1-((1r,4S)-4-((5-cyanopyridin-2-yl)amino)cyclohexyl)-N2-cyclopropyloxalamide] had an IC50 of 15 to 50 nM.
Take `C=CC(=O)Nc1cc(N(C(=O)C(=O)NCc2ccc(F)c(F)c2)[C@H]2CC[C@H](Nc3ccc(C#N)cn3)CC2)ccc1N1CCN(C)[C@@H](C)C1` [YJZ8101, N1-(3-acrylamido-4-((S)-3,4-dimethylpiperazin-1-yl)phenyl)-N1-((1r,4S)-4-((5-cyanopyridin-2-yl)amino)cyclohexyl)-N2-(3,4-difluorobenzyl)oxalamide]: the IC50 is less than 15 nM.
As to `C=CC(=O)Nc1cc(N(C(=O)C(=O)NCc2cc(F)cc(F)c2)[C@H]2CC[C@H](Nc3ccc(C#N)cn3)CC2)ccc1N1CCN(C)[C@@H](C)C1` [YJZ8102, N1-(3-acrylamido-4-((S)-3,4-dimethylpiperazin-1-yl)phenyl)-N1-((1r,4S)-4-((5-cyanopyridin-2-yl)amino)cyclohexyl)-N2-(3,5-difluorobenzyl)oxalamide], the IC50 fell in the range of 15 to 50 nM.
Take `C=CC(=O)Nc1cc(N(C(=O)C(=O)NCC2CC2)[C@H]2CC[C@H](Nc3ccc(C#N)cn3)CC2)ccc1N1CCN(C)[C@@H](C)C1` [YJZ8103, N1-(3-acrylamido-4-((S)-3,4-dimethylpiperazin-1-yl)phenyl)-N1-((1r,4S)-4-((5-cyanopyridin-2-yl)amino)cyclohexyl)-N2-(cyclopropylmethyl)oxalamide]: the IC50 was in the range of 15 to 50 nM.
Consider `C=CC(=O)Nc1cc(N(C(=O)C(=O)NCC(F)(F)F)[C@H]2CC[C@H](Nc3ccc(C#N)cn3)CC2)ccc1N1CCN(C)[C@@H](C)C1` [YJZ8104, N1-(3-acrylamido-4-((S)-3,4-dimethylpiperazin-1-yl)phenyl)-N1-((1r,4S)-4-((5-cyanopyridin-2-yl)amino)cyclohexyl)-N2-(2,2,2-trifluoroethyl)oxalamide], for which the IC50 is 15 to 50 nM.
With `C=CC(=O)Nc1cc(N(C(=O)C(=O)N[C@H](C)c2ccccc2)[C@H]2CC[C@H](Nc3ccc(C#N)cn3)CC2)ccc1N1CCN(C)[C@@H](C)C1` [YJZ8105, N1-(3-acrylamido-4-((S)-3,4-dimethylpiperazin-1-yl)phenyl)-N1-((1r,4R)-4-((5-cyanopyridin-2-yl)amino)cyclohexyl)-N2-((R)-1-phenylethyl)oxalamide] the figure was 15 to 50 nM.
`C=CC(=O)Nc1cc(N(C(=O)C(=O)NCc2cccc(F)c2F)[C@H]2CC[C@H](Nc3ccc(C#N)cn3)CC2)ccc1N1CCN(C)[C@@H](C)C1` [YJZ8107, N1-(3-acrylamido-4-((S)-3,4-dimethylpiperazin-1-yl)phenyl)-N1-((1r,4S)-4-((5-cyanopyridin-2-yl)amino)cyclohexyl)-N2-(2,3-difluorobenzyl)oxalamide]: the concentration for half-maximal inhibition (IC50) was in the range of 15 to 50 nM.
